Assay results as given in article PMC8465315, “Molecular Umbrella as a Nanocarrier for Antifungals” (Molecules, 2021).
Converted amounts (≈) assume the structure as drawn. Like-named read-outs stand apart in the source and are kept apart here.

Columns and labels:
[1] = tested on: C. albicans cell-free extract; assay type: in vitro ADME, Candida albicans; details: conjugate 150 µM, 30 °C, 0, 30, 120 min
Description: (§1) Conjugates 24a–d, containing the TML system, were tested for susceptibility to enzymatic cleavage in the model system with pig liver esterase and in cell-free extract prepared from C. albicans cells. Conjugate 35 containing the o-dithiobenzylcarbamoyl linker was tested in the model system with glutathione and in C. albicans cell-free extract.
C. albicans cells were harvested from the culture in YPD medium in the logarithmic phase of growth and washed with PBS, pH 7.4. Then, cells were suspended in a minimal amount of PBS to an optical density OD660 ≈ 1.5. A sample of 1.5 mL of the cell suspension was put into the Lysing Matrix D, 2 mL tubes containing 1.4 mm ceramic spheres (MP Biomedicals). The tubes were vortexed 5 times for 2 min intervals, with 2 min breaks for cooling in the ice/water bath. Finally, the mixtures were centrifuged (10,000× g, 4 °C, 20 min), and the supernatant was pushed through the syringe filter, 0.22 μm pore size, to remove unbroken cells. The thus-obtained cell-free extract was kept at 4 °C and used no later than 5 h after preparation.
(§2) Analysis of cleavage of the conjugates was performed in two experimental systems: (A) model system, in the presence of pig liver esterase or glutathione, reduced; (B) in C. albicans cell-free extract.
A given conjugate was dissolved in 4 mL of C. albicans cell-free extract to the initial concentration of 150 µM. Mixtures were incubated at 30 °C. Samples of 1 mL were collected at zero time, after 30 min, and after 120 min. The collected samples were immediately de-proteinized by centrifugation (4 °C, 5000× g, 10 min) in Amicon® Ultra-4 Centrifugal Filter Units, 3 kDa cutoff limit. Samples of 50 μL were collected from the filtrates and subjected to HPLC-MS analysis.
(§3) The HPLC-MS system consisted of a liquid chromatograph, a degasser, a binary pomp, an auto-sampler, and a column oven, which was combined with an MS detector with an electrospray source (AJS ESI) and quadrupole analyzer (1260 Infinity II and 6470 Triple Quad LC/MS, Agilent Technologies, Waldbronn, Germany). The ChemStation software was used to control the LC-MS system and for data processing.
(§4) Chromatographic separations were performed on an Eclipse XDB-C18 column (150 mm × 4.6 mm, 5 μm). For the separation, a gradient of mobile phase A (H2O + 0.01% HCOOH) and mobile phase B (100% methanol) was used. The gradient profile was set as follows: 0 min—95% effluent A, 8 min—70% effluent A, 11 min—50% effluent A, 12 min—95% effluent A, 17 min—95% effluent A. The flow rate was 1 mL min^−1, the column temperature was 25 °C, and the injection volume was 20 μL.
(§5) The electrospray source operated in a negative mode. The data were collected in a MS scanning mode (MS2 SCAN) with the range 150–700 (m/z).

[2] = tested on: pig liver esterase; assay: HPLC-MS analysis of conjugate cleavage, model system with pig liver esterase; assay type: in vitro ADME; details: pig liver esterase 5 mg mL^−1; conjugate 150 µM; 30 °C; 0, 30, 120 min
Description: as §1, §2
Mixtures containing a given conjugate at the initial concentration of 150 µM and pig liver esterase, 5 mg mL^−1 or 10 mM glutathione, reduced, in a total volume of 200 μL were incubated at 30 °C. Samples of 50 μL were collected at zero time, after 30 min, and after 120 min and subjected to HPLC-MS analysis.
as §3, §4, §5

[3] = tested on: Candida spp.; assay: Antifungal in vitro activity, summary statements over the Candida strains tested; assay type: cell-based
Description: (§6) The antifungal in vitro activity of conjugates 24a–d and 35 was determined by the serial two-fold dilution method, using the 96-well microtiter plates, in two growth media, RPMI-1640 and YNB-AS, against seven yeast species from the Candida genus. The MIC50 and MIC90 values, i.e., concentrations at which cell growth was inhibited in 50% and 90%, respectively, were measured and compared to those of the intact cispentacin. The concentration values presented in Table 1 and Table 2 are expressed in mM units to allow the comparison of the compounds’ effectiveness at the molecular level. For data expressed in μg mL^−1 units, such comparison is not possible, since the molecular masses of conjugates (≈1755–2114 D range) are 14–16-fold higher than that of cispentacin (128.3 D).
(§7) Susceptibility testing was performed in two growth media: (a) RPMI-1640 w/o sodium bicarbonate, with L-glutamine + 2% glucose + 3.45% MOPS, pH adjusted to 7.0; (b) YNB-AS—Yeast Nitrogen Base w/o amino acids (contains ammonium sulfate 5 g L^−1) + 2% glucose. The in vitro growth inhibitory activity of antifungals was quantified by determination of MIC50 and MIC90 values by the serial two-fold dilution method, using the 96-well microtiter plates. Serial dilutions of cispentacin and its conjugates were prepared in the 4–0.015 mM range.
(§8) Conditions of the RPMI-1640-based assay were the same as outlined in the CLSI recommendations except for the end-point readout that was done by spectrophotometric determination of cell density at 660 nm. Turbidity in individual wells was measured with a microplate reader (Victor^3; Perkin Elmer). The 96-well microtiter plates were also used for the determination of in vitro growth inhibitory activity in YNB-AS medium. Individual wells were inoculated with 5 × 10^3 Candida cells mL^−1 from the overnight culture in YPD medium. The plates were incubated at 37 °C for 24 h, and then, turbidity was measured with a microplate reader at 660 nm, as described above for the RPMI-1640-based assay.
(§9) Values of MIC50 and MIC90 were read from the graphs of A660 vs. drug concentration and corresponded to the interpolated values of drug concentration at which A660 was 50% or 10% of that measured for the drug-free control.

[4] = tested on: C. albicans B4; assay: Antifungal in vitro activity, serial two-fold dilution, RPMI-1640 medium; assay type: cell-based; details: Candida albicans, C. albicans B4 (fluconazole-resistant isolate)
Description: as §6
(§10) The reference strains used in this study were Candida albicans ATCC 10231, Candida glabrata DSM 11226, and Candida krusei DSM 6128. C. albicans B3, B4, Gu4, and Gu5 clinical isolates were kindly provided by Joachim Morschhäuser, Würzburg, Germany. Gu4 and B3 are fluconazole-sensitive isolates obtained from early infection episodes, while Gu5 and B4 are the corresponding fluconazole-resistant isolates obtained from later episodes in the same patients treated with fluconazole. Strains were grown at 30 °C in YPD medium (2% glucose, 1% yeast extract, and 1% Bacto-Peptone) and stored on YPD agar plates containing 2% agar.
as §7, §8, §9

[5] = tested on: C. albicans B3; assay: as above; assay type: cell-based; details: Candida albicans, C. albicans B3 (fluconazole-sensitive isolate)
Description: as §6, §10, §7, §8, §9

[6] = tested on: Candida krusei DSM 6128; assay: as above; assay type: cell-based; details: Pichia kudriavzevii, DSM6128, C. krusei
Description: as §6, §10, §7, §8, §9

[7] = tested on: Candida glabrata DSM 11226; assay: as above; assay type: cell-based; details: Nakaseomyces glabratus, DSM11226, C. glabrata
Description: as §6, §10, §7, §8, §9

[8] = tested on: C. albicans Gu5; assay: as above; assay type: cell-based; details: Candida albicans, C. albicans Gu5 (fluconazole-resistant isolate)
Description: as §6, §10, §7, §8, §9

[9] = tested on: C. albicans Gu4; assay: as above; assay type: cell-based; details: Candida albicans, C. albicans Gu4 (fluconazole-sensitive isolate)
Description: as §6, §10, §7, §8, §9

[10] = tested on: C. albicans ATCC 10231; assay: Antifungal in vitro activity, serial two-fold dilution, YNB-AS medium; assay type: cell-based; details: Candida albicans, ATCC10231, >>1 = no growth inhibition at 1 mM
Description: (§11) The antifungal in vitro activity of conjugates 24a–d and 35 was determined by the serial two-fold dilution method, using the 96-well microtiter plates, in two growth media, RPMI-1640 and YNB-AS, against seven yeast species from the Candida genus. The MIC50 and MIC90 values, i.e., concentrations at which cell growth was inhibited in 50% and 90%, respectively, were measured and compared to those of the intact cispentacin. The concentration values presented in Table 1 and Table 2 are expressed in mM units to allow the comparison of the compounds’ effectiveness at the molecular level. […]
(§12) Susceptibility testing was performed in two growth media: (a) RPMI-1640 w/o sodium bicarbonate, with L-glutamine + 2% glucose + 3.45% MOPS, pH adjusted to 7.0; (b) YNB-AS—Yeast Nitrogen Base w/o amino acids (contains ammonium sulfate 5 g L^−1) + 2% glucose. The in vitro growth inhibitory activity of antifungals was quantified by determination of MIC50 and MIC90 values by the serial two-fold dilution method, using the 96-well microtiter plates. […]
(§13) Conditions of the RPMI-1640-based assay were the same as outlined in the CLSI recommendations except for the end-point readout that was done by spectrophotometric determination of cell density at 660 nm. Turbidity in individual wells was measured with a microplate reader (Victor^3; Perkin Elmer). […]

[11] = tested on: C. albicans ATCC 10231; assay: Antifungal in vitro activity, serial two-fold dilution, RPMI-1640 medium; assay type: cell-based; details: Candida albicans, ATCC10231, >>1 = no growth inhibition at 1 mM
Description: as §11, §12, §13

[12] = tested on: C. albicans B4; assay: Antifungal in vitro activity, serial two-fold dilution, YNB-AS medium; assay type: cell-based; details: Candida albicans, C. albicans B4 (fluconazole-resistant isolate)
Description: as §6, §10, §7, §8, §9

[13] = tested on: C. albicans B3; assay: as above; assay type: cell-based; details: Candida albicans, C. albicans B3 (fluconazole-sensitive isolate)
Description: as §6, §10, §7, §8, §9

[14] = tested on: Candida krusei DSM 6128; assay: as above; assay type: cell-based; details: Pichia kudriavzevii, DSM6128, C. krusei
Description: as §6, §10, §7, §8, §9

[15] = tested on: Candida glabrata DSM 11226; assay: as above; assay type: cell-based; details: Nakaseomyces glabratus, DSM11226, C. glabrata
Description: as §6, §10, §7, §8, §9

[16] = tested on: C. albicans Gu5; assay: as above; assay type: cell-based; details: Candida albicans, C. albicans Gu5 (fluconazole-resistant isolate)
Description: as §6, §10, §7, §8, §9

[17] = tested on: C. albicans Gu4; assay: as above; assay type: cell-based; details: Candida albicans, C. albicans Gu4 (fluconazole-sensitive isolate)
Description: as §6, §10, §7, §8, §9

Structure (SMILES): Cc1cc(C)c(C(C)(C)CC(=O)N[C@H]2CCC[C@H]2C(=O)O)c(OC(=O)CCCCCC(=O)N(CCCCNC(=O)CC[C@@H](C)[C@H]2CC[C@H]3[C@@H]4[C@H](OS(=O)(=O)O)C[C@@H]5C[C@H](OS(=O)(=O)O)CC[C@]5(C)[C@H]4C[C@H](OS(=O)(=O)O)[C@]23C)CCCNC(=O)CC[C@@H](C)[C@H]2CC[C@H]3[C@@H]4[C@H](OS(=O)(=O)O)C[C@@H]5C[C@H](OS(=O)(=O)O)CC[C@]5(C)[C@H]4C[C@H](OS(=O)(=O)O)[C@]23C)c1 [24c]
- cleavage / release of cispentacin or its derivative (HPLC-MS) [1]: the product of a possible cleavage, with RT similar to that of cispentacin but with 17 D higher MW, was formed
- cleavage / release of cispentacin (HPLC-MS) [2]: Presence of the released cispentacin was confirmed

Structure (SMILES): Cc1cc(C)c(C(C)(C)CC(=O)N[C@H]2CCC[C@H]2C(=O)O)c(OC(=O)CCCCCCC(=O)N(CCCCNC(=O)CC[C@@H](C)[C@H]2CC[C@H]3[C@@H]4[C@H](OS(=O)(=O)O)C[C@@H]5C[C@H](OS(=O)(=O)O)CC[C@]5(C)[C@H]4C[C@H](OS(=O)(=O)O)[C@]23C)CCCNC(=O)CC[C@@H](C)[C@H]2CC[C@H]3[C@@H]4[C@H](OS(=O)(=O)O)C[C@@H]5C[C@H](OS(=O)(=O)O)CC[C@]5(C)[C@H]4C[C@H](OS(=O)(=O)O)[C@]23C)c1 [24d]
- cleavage / release of cispentacin or its derivative (HPLC-MS) [1]: the product of a possible cleavage, with RT similar to that of cispentacin but with 17 D higher MW, was formed
- cleavage / release of cispentacin or its derivative (HPLC-MS) ([1]; listed as 26d): found cleavable in the cell-free extract
- antifungal activity ([3]; RPMI-1640 medium): devoid of antifungal activity
- antifungal activity ([3]; both growth media (RPMI-1640 and YNB-AS)): inactive in both media
- antifungal activity ([3]; both growth media (RPMI-1640 and YNB-AS), listed as 26d): not active as an antifungal
- cleavage / release of cispentacin (HPLC-MS) [2]: Presence of the released cispentacin was confirmed

Structure (SMILES): N[C@H]1CCC[C@H]1C(=O)O [CisP, cispentacin]
- MIC50 [4]: 340 µM (≈ 43.9 µg/mL)
- MIC90 [4]: 580 µM (≈ 74.9 µg/mL)
- MIC50 [5]: 210 µM (≈ 27.1 µg/mL)
- MIC90 [5]: 360 µM (≈ 46.5 µg/mL)
- MIC50 [6]: 280 µM (≈ 36.2 µg/mL)
- MIC90 [6]: 570 µM (≈ 73.6 µg/mL)
- MIC50 [7]: 510 µM (≈ 65.9 µg/mL)
- MIC90 [7]: > 1000 µM
- MIC50 [8]: 410 µM (≈ 53 µg/mL)
- MIC90 [8]: 640 µM (≈ 82.7 µg/mL)
- MIC50 [9]: 260 µM (≈ 33.6 µg/mL)
- MIC90 [9]: 420 µM (≈ 54.2 µg/mL)
- MIC50 [10]: 20 µM (≈ 2.58 µg/mL)
- MIC90 [10]: 100 µM (≈ 12.9 µg/mL)
- MIC50 [11]: 80 µM (≈ 10.3 µg/mL)
- MIC90 [11]: 340 µM (≈ 43.9 µg/mL)
- MIC50 [12]: 170 µM (≈ 22 µg/mL)
- MIC90 [12]: 280 µM (≈ 36.2 µg/mL)
- MIC50 [13]: 110 µM (≈ 14.2 µg/mL)
- MIC90 [13]: 150 µM (≈ 19.4 µg/mL)
- MIC50 [14]: 90 µM (≈ 11.6 µg/mL)
- MIC90 [14]: 150 µM (≈ 19.4 µg/mL)
- MIC50 [15]: 100 µM (≈ 12.9 µg/mL)
- MIC90 [15]: 500 µM (≈ 64.6 µg/mL)
- MIC50 [16]: 270 µM (≈ 34.9 µg/mL)
- MIC90 [16]: 390 µM (≈ 50.4 µg/mL)
- MIC50 [17]: 150 µM (≈ 19.4 µg/mL)
- MIC90 [17]: 180 µM (≈ 23.2 µg/mL)
